The subject of this test is DU-145 cells. It is filed as cell-based, human.

SMILES strings stand for the structures.

As for `C=C1[C@@H](C)[C@H]2[C@H](Cc3ccccc3)NC(=O)[C@]23[C@H](OC(C)=O)/C=C/[C@@](C)(O)C(=O)[C@@H](C)C/C=C/[C@H]3[C@@H]1O` [Cytochalasin-D], the “effect on cell migration” value is “did not migrate”.

These data come from patent publication US20120207742A1 (priority 2011, published 2012).
